The text below walks through data of patent US7625948B2, “Ester compound and medicinal use thereof” (Japan Tobacco Inc., priority 2002, dated 2009).

This experiment has as its system HepG2 cells. Kind of experiment: Test Example 2: inhibition of apolipoprotein B secretion from HepG2 cells, ELISA (also used for metabolites in Test Example 8). It counts as cell-based. The note with it: Homo sapiens, 24 hours, apo B in supernatant by ELISA, read-out: Test Example 2 Inhibition of apo B secretion IC50. The procedure, abridged: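 HepG2 cells cultured 24 h, then exposed 24 h to compounds or metabolites in medium with 0.5% DMSO. Secreted apo B in supernatant quantified by sandwich ELISA (HRP, ABTS, 405 nm) against purified human apo B standard; % inhibition vs DMSO group, IC50 derived.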
In general terms: ELISA stands for enzyme-linked immunosorbent assay.
For orientation: IC50 means the concentration that gives 50% inhibition. Take `CCOC(=O)C(COC(=O)Cc1ccc(OC(=O)c2ccccc2-c2ccc(C(F)(F)F)cc2)cc1)(C(=O)OCC)c1ccccc1` [Example 1-2, 2-Phenyl-2-{2-[4-(4′-trifluoromethylbiphenyl-2-carbonyloxy)phenyl]acetoxymethyl}malonic acid diethyl ester]: the IC50 amounted to 850 nM. For `CCNC(=O)C(CCOC(=O)Cc1ccc(NC(=O)c2ccccc2-c2ccc(C(F)(F)F)cc2)c(OC)c1)(C(=O)NCC)c1ccccc1` [Example 3-6] the value was 0.63 nM. For `CCNC(=O)C(COC(=O)Cc1ccc(NC(=O)c2ccccc2-c2ccc(C(F)(F)F)cc2)c(CC)c1)(C(=O)NCC)c1ccccc1` [Example 1-5, {3-Ethyl-4-[(4′-trifluoromethylbiphenyl-2-carbonyl)amino]phenyl}acetic acid 2,2-bisethylcarbamoyl-2-phenylethyl ester] the value was 0.65 nM. The same measure for `CCNC(=O)C(COC(=O)Cc1ccc(NC(=O)c2ccccc2-c2ccc(C(F)(F)F)cc2)cc1)(C(=O)NCC)c1ccccc1` [Example 1, 4-[(4′-Trifluoromethylbiphenyl-2-carbonyl)amino]phenyl-acetic acid 2,2-bisethylcarbamoyl-2-phenylethyl ester]: 5.8 nM; for `CCCNC(=O)C(COC(=O)Cc1ccc(NC(=O)c2ccccc2-c2ccc(C(F)(F)F)cc2)c(C(=O)N(C)C)c1)(C(=O)NCCC)c1ccccc1` [Example 2-2]: 1.3 nM; for `CCNC(=O)C(COC(=O)Cc1ccc(NC(=O)c2ccccc2-c2ccc(C(F)(F)F)cc2)c(C(=O)NC)c1)(C(=O)NCC)c1ccccc1` [Example 2-3]: 2 nM. Turning to `CCNC(=O)C(CCOC(=O)Cc1ccc(NC(=O)c2ccccc2-c2ccc(C(F)(F)F)cc2)c(C(=O)N(C)C)c1)(C(=O)NCC)c1ccccc1` [Example 2-4], the IC50 came out at 0.29 nM. Turning to `O=C(Cc1ccc(NC(=O)c2ccccc2-c2ccc(C(F)(F)F)cc2)cc1)OCC(C(=O)NCC(F)(F)F)(C(=O)NCC(F)(F)F)c1ccccc1` [Example 1-12], the IC50 came out at 63 nM. The same measure for `CCOC(=O)C(COC(=O)Cc1ccc(NC(=O)c2ccccc2-c2ccc(C(F)(F)F)cc2)c(C(=O)N(C)C)c1)(C(=O)OCC)c1ccccc1` [Example 2-5]: 0.55 nM; for `COC(=O)C(COC(=O)Cc1ccc(NC(=O)c2ccccc2-c2ccc(C(F)(F)F)cc2)cc1)(C(=O)OC)c1ccccc1` [Example 1-13]: 170 nM; for `CCNC(=O)C(COC(=O)Cc1ccc(NC(=O)c2ccccc2-c2ccc(C(F)(F)F)cc2)c(OC)c1)(C(=O)NCC)c1ccccc1` [Example 3-3]: 1 nM. The same measure for `O=C(Cc1ccc(NC(=O)c2ccccc2-c2ccc(C(F)(F)F)cc2)cc1)OCC1(C(=O)NCC(F)(F)F)c2ccccc2-c2ccccc21` [Example 1-6]: 5.5 nM; for `CCNC(=O)C(CCCOC(=O)Cc1ccc(NC(=O)c2ccccc2-c2ccc(C(F)(F)F)cc2)c(C(=O)N(C)C)c1)(C(=O)NCC)c1ccccc1` [Example 2-7]: 0.56 nM; for `CCNC(=O)C(COC(=O)Cc1ccc(NC(=O)c2ccccc2-c2ccc(C(F)(F)F)cc2)c(OC(C)C)c1)(C(=O)NCC)c1ccccc1` [Example 3-10]: 0.31 nM.

In the case of `CCOC(=O)C(COC(=O)Cc1ccc(NC(=O)c2ccccc2-c2ccc(C(F)(F)F)cc2)c(C(=O)N2CCCC2)c1)(C(=O)OCC)c1ccccc1` [Example 2-22], the IC50 stood at 0.44 nM. The same measure for `CCNC(=O)C(COC(=O)Cc1ccc(NC(=O)c2ccccc2-c2ccc(C(F)(F)F)cc2)c(C(=O)N(C)C)c1)(C(=O)NCC)c1ccccc1` [Example 2, {3-Dimethylcarbamoyl-4-[(4′-trifluoromethylbiphenyl-2-carbonyl)amino]phenyl}acetic acid 2,2-bisethylcarbamoyl-2-phenylethyl ester]: 1.5 nM; for `CCCNC(=O)C(COC(=O)Cc1ccc(NC(=O)c2ccccc2-c2ccc(C(F)(F)F)cc2)cc1)(C(=O)NCCC)c1ccccc1` [Example 1-35]: 6.9 nM; for `COC(=O)C(COC(=O)Cc1ccc(NC(=O)c2ccccc2-c2ccc(C(F)(F)F)cc2)c(C(=O)N(C)C)c1)(C(=O)OC)c1ccccc1` [Example 2-39]: 0.76 nM.

With `CCNC(=O)C(CCOC(=O)Cc1ccc(NC(=O)c2ccccc2-c2ccc(C(F)(F)F)cc2)c(OCC)c1)(C(=O)NCC)c1ccccc1` [Example 3-8], the IC50 is 0.38 nM.
